Reference: PubChem BioAssay AID330 (DTP/NCI, 2004)
Several values for one entry are separate records, joined by “and”; a condition that tells them apart may be missing. Equal values may be shown once. Toxic doses and inconclusive results are not listed. How the source made its calls: active means survival T/C of 150% or more; inactive means T/C below 125% in these data.

Tested on: P388 leukemia ip, CD2F1 mice, survival T/C
Assay: NCI In Vivo Anticancer Drug Screen. Data for tumor model P388 Leukemia (intraperitoneal) in CD2F1 (CDF1) mice
Details: endpoint: median survival time, higher = longer survival
Procedure, shortened: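 Mice carrying the transplanted tumor received test compound or vehicle. Survival was recorded in each group, and the value is the treated-group measurement divided by that of the vehicle-treated control group.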

[1] = dose: 50.0 mg/kg/injection, schedule: Q01DX005 (ip), vehicle: saline with Tween-80
[2] = dose: 100.0 mg/kg/injection, schedule: Q01DX005 (ip), vehicle: saline with Tween-80
[3] = dose: 200.0 mg/kg/injection, schedule: Q01DX005 (ip), vehicle: saline with Tween-80
[4] = dose: 50.0 mg/kg/injection, schedule: Q01DX005 (ip), vehicle: saline
[5] = dose: 100.0 mg/kg/injection, schedule: Q01DX005 (ip), vehicle: saline

Measured: T/C

CCCCCCCCCCCC(=O)NCCOCCOCCOCCOCCOCCOCCOCCOCCO (tested in a mixture with another compound)
inactive: [1] 98 % of control | [2] 102 % of control | [3] 96 % of control

CCCCCCCCn1c(Cl)c(C(=O)O)c2ccccc21
inactive: dose: 100.0 mg/kg/injection, schedule: Q01DX001 (ip), vehicle: Klucel (hydroxypropylcellulose) (HPC) 95 % of control | dose: 200.0 mg/kg/injection, schedule: Q01DX001 (ip), vehicle: Klucel (hydroxypropylcellulose) (HPC) 86 % of control | dose: 400.0 mg/kg/injection, schedule: Q01DX001 (ip), vehicle: Klucel (hydroxypropylcellulose) (HPC) 86 % of control

Clc1ccccc1-n1cccc1/C=N\N=C/c1cccn1-c1ccccc1Cl
inactive: [1] 107 % of control | [2] 110 % of control and 86 % of control | [3] 121 % of control and 86 % of control and 90 % of control

O=C(CNNC(=O)OCc1ccccc1)OCc1ccccc1
inactive: dose: 12.5 mg/kg/injection, schedule: Q01DX009 (ip), vehicle: other 95 % of control | dose: 25.0 mg/kg/injection, schedule: Q01DX009 (ip), vehicle: other 99 % of control | dose: 50.0 mg/kg/injection, schedule: Q01DX009 (ip), vehicle: other 93 % of control | dose: 100.0 mg/kg/injection, schedule: Q01DX009 (ip), vehicle: other 96 % of control

CC(=Nc1ccccc1)Nc1ccccc1.[Cu+2]
inactive: dose: 12.5 mg/kg/injection, schedule: Q01DX009 (ip), vehicle: saline with Tween-80 109 % of control | dose: 25.0 mg/kg/injection, schedule: Q01DX009 (ip), vehicle: saline with Tween-80 105 % of control | dose: 50.0 mg/kg/injection, schedule: Q01DX009 (ip), vehicle: saline with Tween-80 105 % of control

COc1cccc2c1C(=O)c1c(O)c3c(c(O)c1C2=O)C[C@@](O)(C(C)=O)C[C@@H]3OC1CC(NC(=O)C(N)CCN)C(O)C(C)O1 (some centres undefined)
inactive: dose: 5.0 mg/kg/injection, schedule: Q04DX003 (ip), vehicle: water 96 % of control | dose: 10.0 mg/kg/injection, schedule: Q04DX003 (ip), vehicle: water 94 % of control | dose: 20.0 mg/kg/injection, schedule: Q04DX003 (ip), vehicle: water 99 % of control | dose: 40.0 mg/kg/injection, schedule: Q04DX003 (ip), vehicle: water 105 % of control | dose: 80.0 mg/kg/injection, schedule: Q04DX003 (ip), vehicle: water 118 % of control | dose: 160.0 mg/kg/injection, schedule: Q04DX003 (ip), vehicle: distilled water + Tween-80 106 % of control | dose: 320.0 mg/kg/injection, schedule: Q04DX003 (ip), vehicle: distilled water + Tween-80 105 % of control

CSC(SC)=C(C#N)C#N
inactive: dose: 25.0 mg/kg/injection, schedule: Q04DX003 (ip), vehicle: saline 104 % of control | dose: 50.0 mg/kg/injection, schedule: Q04DX003 (ip), vehicle: saline 105 % of control | dose: 100.0 mg/kg/injection, schedule: Q04DX003 (ip), vehicle: saline 108 % of control

C=CCC(C(=C)Sc1ccccc1)S(=O)(=O)c1ccccc1 (centres undefined)
inactive: dose: 100.0 mg/kg/injection, schedule: Q04DX002 (ip), vehicle: saline with Tween-80 115 % of control | dose: 200.0 mg/kg/injection, schedule: Q04DX002 (ip), vehicle: saline with Tween-80 109 % of control | dose: 400.0 mg/kg/injection, schedule: Q04DX002 (ip), vehicle: saline with Tween-80 105 % of control

CN(C(=O)C(=S)c1ccccc1)c1ccccc1
inactive: dose: 100.0 mg/kg/injection, schedule: Q04DX002 (ip), vehicle: saline 104 % of control | dose: 200.0 mg/kg/injection, schedule: Q04DX002 (ip), vehicle: saline 119 % of control | dose: 400.0 mg/kg/injection, schedule: Q04DX002 (ip), vehicle: saline 117 % of control

O=[N+]([O-])c1ccc(/C=C\c2ccc(Cl)cc2S(=O)(=O)F)c(Cl)c1
inactive: dose: 100.0 mg/kg/injection, schedule: Q01DX009 (ip), vehicle: saline with Tween-80 95 % of control | dose: 100.0 mg/kg/injection, schedule: Q04DX003 (ip), vehicle: Klucel (hydroxypropylcellulose) (HPC) 117 % of control | dose: 200.0 mg/kg/injection, schedule: Q01DX009 (ip), vehicle: saline with Tween-80 100 % of control | dose: 200.0 mg/kg/injection, schedule: Q04DX003 (ip), vehicle: Klucel (hydroxypropylcellulose) (HPC) 103 % of control | dose: 400.0 mg/kg/injection, schedule: Q01DX009 (ip), vehicle: saline with Tween-80 104 % of control | dose: 400.0 mg/kg/injection, schedule: Q04DX003 (ip), vehicle: Klucel (hydroxypropylcellulose) (HPC) 112 % of control

Cc1ccc2ncccc2c1N (tested in a mixture with another compound)
inactive: dose: 6.25 mg/kg/injection, schedule: Q01DX009 (ip), vehicle: gum acacia 106 % of control | dose: 12.5 mg/kg/injection, schedule: Q01DX009 (ip), vehicle: gum acacia 113 % of control | dose: 25.0 mg/kg/injection, schedule: Q01DX009 (ip), vehicle: gum acacia 107 % of control | dose: 50.0 mg/kg/injection, schedule: Q01DX009 (ip), vehicle: gum acacia 108 % of control

COc1cc(NC(C)CCCN)c2ncccc2c1Sc1ccc(Cl)cc1 (centres undefined)
inactive: dose: 3.13 mg/kg/injection, schedule: Q01DX009 (ip), vehicle: saline with Tween-80 89 % of control | dose: 6.25 mg/kg/injection, schedule: Q01DX009 (ip), vehicle: saline with Tween-80 94 % of control

CC1CCC2(C)CCC3(C)C4=CCC5C(C)(C)C(O)CCC5(C)C4CCC3(C)C2C1C (centres undefined)
inactive: dose: 200.0 mg/kg/injection, schedule: Q04DX003 (ip), vehicle: other 95 % of control | dose: 400.0 mg/kg/injection, schedule: Q04DX003 (ip), vehicle: other 100 % of control

CC(C)NCCCNC(=O)C1COc2ccccc2O1 (centres undefined)
inactive: [4] 94 % of control | [5] 88 % of control | dose: 200.0 mg/kg/injection, schedule: Q01DX005 (ip), vehicle: saline 90 % of control

CCOC(=O)OCC1OC(OC(C)=O)C(OC(C)=O)C(OC(=O)OCC)C1OC(=O)OCC (centres undefined)
inactive: dose: 12.5 mg/kg/injection, schedule: Q01DX009 (ip), vehicle: water 95 % of control | dose: 25.0 mg/kg/injection, schedule: Q01DX009 (ip), vehicle: water 99 % of control | dose: 50.0 mg/kg/injection, schedule: Q01DX009 (ip), vehicle: water 91 % of control | dose: 100.0 mg/kg/injection, schedule: Q01DX009 (ip), vehicle: water 99 % of control | dose: 200.0 mg/kg/injection, schedule: Q01DX009 (ip), vehicle: water 90 % of control

CCC1C(OC)=CC(CC)(C(=O)OC)C=C1OC (centres undefined)
inactive: [1] 100 % of control | [2] 107 % of control | [3] 107 % of control

c1ccc2c(SCCCCCCCCCSc3c4ccccc4nc4ccccc34)c3ccccc3nc2c1
inactive: dose: 60.0 mg/kg/injection, schedule: Q01DX005 (ip), vehicle: Klucel (hydroxypropylcellulose) (HPC) 107 % of control | dose: 120.0 mg/kg/injection, schedule: Q01DX005 (ip), vehicle: Klucel (hydroxypropylcellulose) (HPC) 104 % of control | dose: 240.0 mg/kg/injection, schedule: Q01DX005 (ip), vehicle: Klucel (hydroxypropylcellulose) (HPC) 90 % of control

CC(=O)Nc1ccsc1
inactive: dose: 25.0 mg/kg/injection, schedule: Q01DX005 (ip), vehicle: saline 102 % of control | [4] 104 % of control | [5] 109 % of control

COc1ccc2nc(C)cc(N/N=C/c3cccnc3)c2c1
inactive: dose: 6.25 mg/kg/injection, schedule: Q01DX009 (ip), vehicle: Klucel (hydroxypropylcellulose) (HPC) 101 % of control | dose: 12.5 mg/kg/injection, schedule: Q01DX009 (ip), vehicle: Klucel (hydroxypropylcellulose) (HPC) 104 % of control | dose: 25.0 mg/kg/injection, schedule: Q01DX009 (ip), vehicle: Klucel (hydroxypropylcellulose) (HPC) 113 % of control

CNCCCCCc1cc(-c2ccc([N+](=O)[O-])cc2)n[nH]1
inactive: dose: 25.0 mg/kg/injection, schedule: Q04DX003 (ip), vehicle: saline with Tween-80 103 % of control | dose: 50.0 mg/kg/injection, schedule: Q04DX003 (ip), vehicle: saline with Tween-80 103 % of control | dose: 100.0 mg/kg/injection, schedule: Q04DX003 (ip), vehicle: saline with Tween-80 100 % of control and 94 % of control
